Measured values reported in patent publication US20260345619A1 (Principia Biopharma Inc., priority 2023, published 2026).

Assay: Pre-bronchodilator FEV1 and percent predicted FEV1 by spirometry, change from baseline
Assay type: in vivo, human
Procedure: Spirometry is a standard test to measure patients' lung function.
The primary endpoint was the proportion of patients with LOAC. The key secondary endpoint for the study was change in pre-bronchodilator FEV1 from baseline at EOT.
Reversibility is defined as an increase of the absolute FEV1 after administration of bronchodilator and is measured by spirometry as postbronchodilator increase in FEV1 in percent of the prebronchodilator FEV1. After spirometry for measuring prebronchodilator FEV1, participants were to receive 2-4 puffs of albuterol/salbutamol or levalbuterol/levosalbutamol from a primed MDI. The postbronchodilator spirometry may have been repeated several times within 30 minutes after administration of bronchodilator. Alternatively, and only if it was consistent with usual office practice (to be documented), reversibility may have been performed using inhalation of nebulized albuterol/salbutamol or levalbuterol/levosalbutamol.
Secondary endpoints included pre-bronchodilator FEV1 change from baseline at EOT, ACQ-5 score change from baseline, and AQLQ score change from baseline. Other secondary and exploratory endpoints are described in Table 2.

[1] = 400 mg BID, Week 12, before LOAC and OCS use, as observed, mITT
[2] = 400 mg BID, Week 12, observed/LOCF imputed, mITT
[3] = 400 mg BID, Week 12, on-site conventional spirometry as observed, mITT
[4] = 400 mg BID, Week 12, reduced model, mITT
[5] = 400 mg BID, Week 16, before LOAC and OCS use, as observed, mITT
[6] = 400 mg BID, Week 16, on-site conventional spirometry as observed, mITT
[7] = 400 mg TID, Week 12, 1 exacerbation within 2 years
[8] = 400 mg TID, Week 12, 2 exacerbations within 2 years
[9] = 400 mg TID, Week 12, Eastern Europe
[10] = 400 mg TID, Week 12, Latin America
[11] = 400 mg TID, Week 12, age <45 years
[12] = 400 mg TID, Week 12, age ≥45 years
[13] = 400 mg TID, Week 12, asthma onset age <12 years
[14] = 400 mg TID, Week 12, asthma onset age <18 years
[15] = 400 mg TID, Week 12, asthma onset age ≥12-<18 years
[16] = 400 mg TID, Week 12, asthma onset age ≥18-<40 years
[17] = 400 mg TID, Week 12, asthma onset age ≥18 years
[18] = 400 mg TID, Week 12, asthma onset age ≥40 years
[19] = 400 mg TID, Week 12, atopic medical conditions: No
[20] = 400 mg TID, Week 12, atopic medical conditions: Yes
[21] = 400 mg TID, Week 12, background ICS dose High
[22] = 400 mg TID, Week 12, background ICS dose Medium
[23] = 400 mg TID, Week 12, baseline ACQ-5 >2
[24] = 400 mg TID, Week 12, baseline ACQ-5 ≤2
[25] = 400 mg TID, Week 12, baseline BMI <25 kg/m^2
[26] = 400 mg TID, Week 12, baseline BMI ≥25-<30 kg/m^2
[27] = 400 mg TID, Week 12, baseline BMI ≥30 kg/m^2
[28] = 400 mg TID, Week 12, baseline FEV1 <2.1955 L (median)
[29] = 400 mg TID, Week 12, baseline FEV1 reversibility <12%
[30] = 400 mg TID, Week 12, baseline FEV1 reversibility ≥12%
[31] = 400 mg TID, Week 12, baseline FEV1 ≥2.1955 L (median)
[32] = 400 mg TID, Week 12, baseline FeNO <25 ppb
[33] = 400 mg TID, Week 12, baseline FeNO <35 ppb
[34] = 400 mg TID, Week 12, baseline FeNO ≥25 ppb

SMILES: CC(C)(C=C(C#N)C(=O)N1CCC[C@@H](n2nc(-c3ccc(Oc4ccccc4)cc3F)c3c(N)ncnc32)C1)N1CCN(C2COC2)CC1 (mixture of isomers) [rilzabrutinib, (R)-2-[3-[4-amino-3-(2-fluoro-4-phenoxy-phenyl)pyrazolo[3,4-d]pyrimidin-1-yl]piperidine-1-carbonyl]-4-methyl-4-[4-(oxetan-3-yl)piperazin-1-yl]pent-2-enenitrile]
- Pre-bronchodilator FEV1 change from baseline, median [1]: -0.04 L
- Pre-bronchodilator FEV1 percent change from baseline, mean [1]: −2.63%
- Pre-bronchodilator FEV1 percent change from baseline, median [1]: −2.04%
- Change from baseline in pre-bronchodilator FEV1, Mean [2]: -0.04 L
- Change from baseline in pre-bronchodilator FEV1, Median [2]: -0.02 L
- Pre-bronchodilator FEV1, Mean [2]: 2.02 L
- Pre-bronchodilator FEV1, Median [2]: 1.88 L
- Pre-bronchodilator FEV1, mean [2]: 2.02 L
- Pre-bronchodilator FEV1, median [2]: 1.88 L
- Pre-bronchodilator FEV1 change from baseline, LS Mean [2]: -0.07 L
- Pre-bronchodilator FEV1 change from baseline, LS Mean Diff vs. placebo [2]: 0.01 L
- Pre-bronchodilator FEV1 change from baseline, Mean [2]: -0.04 L
- Pre-bronchodilator FEV1 change from baseline, median [2]: -0.02 L
- Pre-bronchodilator FEV1, mean [3]: 1.97 L
- Pre-bronchodilator FEV1, median [3]: 1.82 L
- Pre-bronchodilator FEV1 change from baseline, Mean [3]: -0.03 L
- Pre-bronchodilator FEV1 change from baseline, median [3]: -0.05 L
- Pre-bronchodilator FEV1 percent change from baseline, mean [3]: −3.27%
- Pre-bronchodilator FEV1 percent change from baseline, median [3]: −2.70%
- Change from baseline in pre-bronchodilator FEV1, LS Mean [4]: -0.07 L
- Change from baseline in pre-bronchodilator FEV1, LS Mean diff vs. placebo [4]: 0.01 L
- Pre-bronchodilator FEV1, mean [5]: 2.30 L
- Pre-bronchodilator FEV1, median [5]: 2.01 L
- Pre-bronchodilator FEV1 change from baseline, Mean [5]: 0.29 L
- Pre-bronchodilator FEV1 change from baseline, median [5]: 0.28 L
- Pre-bronchodilator FEV1 percent change from baseline, mean [5]: 13.96%
- Pre-bronchodilator FEV1 percent change from baseline, median [5]: 15.23%
- Pre-bronchodilator FEV1, mean [6]: 2.30 L
- Pre-bronchodilator FEV1, median [6]: 2.01 L
- Pre-bronchodilator FEV1 change from baseline, Mean [6]: 0.29 L
- Pre-bronchodilator FEV1 change from baseline, median [6]: 0.28 L
- Pre-bronchodilator FEV1 percent change from baseline, mean [6]: 13.96%
- Pre-bronchodilator FEV1 percent change from baseline, median [6]: 15.23%
- Pre-bronchodilator FEV1 change from baseline, LS Mean [7]: -0.14 L
- Pre-bronchodilator FEV1 change from baseline, LS Mean Diff vs. placebo [7]: -0.13 L
- Pre-bronchodilator FEV1 change from baseline, Mean [7]: -0.16 L
- Pre-bronchodilator FEV1 change from baseline, LS Mean [8]: -0.08 L
- Pre-bronchodilator FEV1 change from baseline, LS Mean Diff vs. placebo [8]: 0.06 L
- Pre-bronchodilator FEV1 change from baseline, Mean [8]: -0.16 L
- Pre-bronchodilator FEV1 change from baseline, Mean (400 mg TID, Week 12, >2 exacerbations within 2 years): 0.01 L
- Pre-bronchodilator FEV1 change from baseline, LS Mean [9]: -0.18 L
- Pre-bronchodilator FEV1 change from baseline, LS Mean Diff vs. placebo [9]: -0.08 L
- Pre-bronchodilator FEV1 change from baseline, Mean [9]: -0.18 L
- Pre-bronchodilator FEV1 change from baseline, LS Mean [10]: -0.08 L
- Pre-bronchodilator FEV1 change from baseline, LS Mean Diff vs. placebo [10]: -0.12 L
- Pre-bronchodilator FEV1 change from baseline, Mean [10]: -0.08 L
- Pre-bronchodilator FEV1 change from baseline, Mean (400 mg TID, Week 12, Western Countries): -0.18 L
- Pre-bronchodilator FEV1 change from baseline, LS Mean [11]: -0.24 L
- Pre-bronchodilator FEV1 change from baseline, LS Mean Diff vs. placebo [11]: -0.18 L
- Pre-bronchodilator FEV1 change from baseline, Mean [11]: -0.24 L
- Pre-bronchodilator FEV1 change from baseline, LS Mean [12]: -0.04 L
- Pre-bronchodilator FEV1 change from baseline, LS Mean Diff vs. placebo [12]: -0.01 L
- Pre-bronchodilator FEV1 change from baseline, Mean [12]: -0.08 L
- Pre-bronchodilator FEV1 change from baseline, LS Mean [13]: -0.34 L
- Pre-bronchodilator FEV1 change from baseline, LS Mean Diff vs. placebo [13]: -0.28 L
- Pre-bronchodilator FEV1 change from baseline, Mean [13]: -0.25 L
- Pre-bronchodilator FEV1 change from baseline, LS Mean [14]: -0.25 L
- Pre-bronchodilator FEV1 change from baseline, LS Mean Diff vs. placebo [14]: -0.27 L
- Pre-bronchodilator FEV1 change from baseline, Mean [14]: -0.18 L
- Pre-bronchodilator FEV1 change from baseline, LS Mean [15]: 0.05 L
- Pre-bronchodilator FEV1 change from baseline, LS Mean Diff vs. placebo [15]: -0.40 L
- Pre-bronchodilator FEV1 change from baseline, Mean [15]: -0.01 L
- Pre-bronchodilator FEV1 change from baseline, LS Mean [16]: -0.18 L
- Pre-bronchodilator FEV1 change from baseline, LS Mean Diff vs. placebo [16]: -0.08 L
- Pre-bronchodilator FEV1 change from baseline, Mean [16]: -0.17 L
- Pre-bronchodilator FEV1 change from baseline, LS Mean [17]: -0.10 L
- Pre-bronchodilator FEV1 change from baseline, LS Mean Diff vs. placebo [17]: -0.02 L
- Pre-bronchodilator FEV1 change from baseline, Mean [17]: -0.14 L
- Pre-bronchodilator FEV1 change from baseline, LS Mean [18]: 0.01 L
- Pre-bronchodilator FEV1 change from baseline, LS Mean Diff vs. placebo [18]: 0.06 L
- Pre-bronchodilator FEV1 change from baseline, Mean [18]: -0.07 L
- Pre-bronchodilator FEV1 change from baseline, LS Mean [19]: -0.15 L
- Pre-bronchodilator FEV1 change from baseline, LS Mean Diff vs. placebo [19]: -0.11 L
- Pre-bronchodilator FEV1 change from baseline, Mean [19]: -0.18 L
- Pre-bronchodilator FEV1 change from baseline, LS Mean [20]: -0.12 L
- Pre-bronchodilator FEV1 change from baseline, LS Mean Diff vs. placebo [20]: -0.04 L
- Pre-bronchodilator FEV1 change from baseline, Mean [20]: -0.09 L
- Pre-bronchodilator FEV1 change from baseline, LS Mean [21]: -0.13 L
- Pre-bronchodilator FEV1 change from baseline, LS Mean Diff vs. placebo [21]: -0.07 L
- Pre-bronchodilator FEV1 change from baseline, Mean [21]: -0.13 L
- Pre-bronchodilator FEV1 change from baseline, LS Mean [22]: -0.15 L
- Pre-bronchodilator FEV1 change from baseline, LS Mean Diff vs. placebo [22]: -0.10 L
- Pre-bronchodilator FEV1 change from baseline, Mean [22]: -0.18 L
- Pre-bronchodilator FEV1 change from baseline, LS Mean [23]: -0.15 L
- Pre-bronchodilator FEV1 change from baseline, LS Mean Diff vs. placebo [23]: -0.16 L
- Pre-bronchodilator FEV1 change from baseline, Mean [23]: -0.17 L
- Pre-bronchodilator FEV1 change from baseline, LS Mean [24]: -0.12 L
- Pre-bronchodilator FEV1 change from baseline, LS Mean Diff vs. placebo [24]: -0.01 L
- Pre-bronchodilator FEV1 change from baseline, Mean [24]: -0.10 L
- Pre-bronchodilator FEV1 change from baseline, LS Mean [25]: -0.19 L
- Pre-bronchodilator FEV1 change from baseline, LS Mean Diff vs. placebo [25]: -0.16 L
- Pre-bronchodilator FEV1 change from baseline, Mean [25]: -0.21 L
- Pre-bronchodilator FEV1 change from baseline, LS Mean [26]: -0.11 L
- Pre-bronchodilator FEV1 change from baseline, LS Mean Diff vs. placebo [26]: -0.05 L
- Pre-bronchodilator FEV1 change from baseline, Mean [26]: -0.14 L
- Pre-bronchodilator FEV1 change from baseline, LS Mean [27]: -0.11 L
- Pre-bronchodilator FEV1 change from baseline, LS Mean Diff vs. placebo [27]: -0.07 L
- Pre-bronchodilator FEV1 change from baseline, Mean [27]: -0.14 L
- Pre-bronchodilator FEV1 change from baseline, LS Mean [28]: -0.03 L
- Pre-bronchodilator FEV1 change from baseline, LS Mean Diff vs. placebo [28]: -0.09 L
- Pre-bronchodilator FEV1 change from baseline, Mean [28]: -0.05 L
- Pre-bronchodilator FEV1 change from baseline, LS Mean [29]: -0.16 L
- Pre-bronchodilator FEV1 change from baseline, LS Mean Diff vs. placebo [29]: -0.12 L
- Pre-bronchodilator FEV1 change from baseline, Mean [29]: -0.18 L
- Pre-bronchodilator FEV1 change from baseline, LS Mean [30]: -0.01 L
- Pre-bronchodilator FEV1 change from baseline, LS Mean Diff vs. placebo [30]: -0.02 L
- Pre-bronchodilator FEV1 change from baseline, Mean [30]: 0.00 L
- Pre-bronchodilator FEV1 change from baseline, LS Mean [31]: -0.22 L
- Pre-bronchodilator FEV1 change from baseline, LS Mean Diff vs. placebo [31]: -0.09 L
- Pre-bronchodilator FEV1 change from baseline, Mean [31]: -0.21 L
- Pre-bronchodilator FEV1 change from baseline, LS Mean [32]: -0.16 L
- Pre-bronchodilator FEV1 change from baseline, LS Mean Diff vs. placebo [32]: -0.12 L
- Pre-bronchodilator FEV1 change from baseline, Mean [32]: -0.19 L
- Pre-bronchodilator FEV1 change from baseline, LS Mean [33]: -0.14 L
- Pre-bronchodilator FEV1 change from baseline, LS Mean Diff vs. placebo [33]: -0.09 L
- Pre-bronchodilator FEV1 change from baseline, Mean [33]: -0.18 L
- Pre-bronchodilator FEV1 change from baseline, LS Mean [34]: -0.09 L
- Pre-bronchodilator FEV1 change from baseline, LS Mean Diff vs. placebo [34]: -0.04 L
- Pre-bronchodilator FEV1 change from baseline, Mean [34]: -0.09 L
- Pre-bronchodilator FEV1 change from baseline, LS Mean (400 mg TID, Week 12, baseline FeNO ≥35 ppb): -0.07 L
